Measurements from patent US20230159484A1, “FLUORESCENT DYES HAVING HIGH STOKES SHIFT, ON THE BASIS OF BRIDGED BENZOPYRYLIUM SALTS” (DYOMICS GmbH, priority 2020, published 2023).

How the values were obtained:
Type in all cases: physicochemical
[1] = Fluorescence emission (emission maximum); settings: in PBS
[2] = UV-Vis absorption (absorption maximum, extinction coefficient)
[3] = Fluorescence emission (emission maximum); settings: in buffer pH 5

CCN(CCCCCC(=O)O)c1ccc2c(c1)OC1=C(c3ccncc3)C(=O)CC(C)(C)C1=C2 [Compound 44, 6-[[8,8-dimethyl-6-oxo-5-(4-pyridyl)-7H-xanthene-3-yl]-ethyl-amino]hexanoic Acid]
λem [1]: 573 nm
ε ([2]; UV-Vis in PBS): 13,000 l/mol*cm
λmax ([2]; UV-Vis in PBS): 472 nm
ε ([2]; UV-Vis in buffer pH 5): 13300 L/mol/cm
λmax ([2]; UV-Vis in buffer pH 5): 523 nm
λem [3]: 600 nm

CC1(C)CC(=O)C(c2ccncc2)=C2Oc3cc(N(CCCCCC(=O)O)CCCS(=O)(=O)[O-])ccc3C=C21.[Na+] [Compound 45, 3-[5-carboxypentyl-[8,8-dimethyl-6-oxo-5-(4-pyridyl)-7H-xanthene-3-yl]amino]propane-1-sulfonate Sodium Salt]
λem [1]: 570 nm
ε ([2]; UV-Vis in PBS): 15000 L/mol/cm
λmax ([2]; UV-Vis in PBS): 470 nm
ε ([2]; UV-Vis in buffer pH 5): 15400 L/mol/cm
λmax ([2]; UV-Vis in buffer pH 5): 524 nm
λem [3]: 594 nm
